Reference: patent US20230133672A1, “FUSION POLYPEPTIDE COMPRISING GDF15 AND POLYPEPTIDE REGION CAPABLE OF O-GLYCOSYLATION” (LG CHEM, LTD., priority 2019, published 2023)

Assay: Repeated administration: feed intake in DIO mice
Assay type: in vivo, Mouse, C57BL/6J-DIO
Set-up: unit not given here
Description: In addition, after administering the test substances into mice, the daily feed intake was measured, and the feeding amount was measured using an electronic scale for each breeding box, and the remaining amount was measured to calculate the daily feed intake. In case of an individual that gnawed heavily on heed, it was excluded from the measurement.
All the experimental results obtained in the present example were expressed as mean±standard error and tested using Prism5 (version 5.01). One-way analysis of variance (ANOVA) was performed on all data, and when significance was observed, Dunnett's test was performed to find out the test groups with a significant difference from the control group (significance level: two-sided 5% and 1%, 0.1%).
Except for the administration dose, animal number and administration cycle, most of the test processes were the same as in Example 2.1.1 above.
The test substances were administered twice a week (Days 0, 4, 7, 11, 14, 18, 21, 25) for a total of 8 times. For comparison, the control group in which the control substance Semaglutide was administered every day was prepared, and the comparison group in which Semaglutide was administered every day was administered once a day daily, and all the administration was progressed from 9 AM.

Substance: HT-ID3-GDF15: Fusion polypeptide: His-Tag, TEV cleavage site, three IgD hinges, GS linker, GDF15 (SEQ ID NO: 3)
- Feed intake, Mean (Day 1, 3 nmol/kg twice a week): 2.9
- Feed intake, Mean (Day 1, 10 nmol/kg twice a week): 2.9
- Feed intake, Mean (Day 1, 30 nmol/kg twice a week): 2.5
- Feed intake, Mean (Day 2, 3 nmol/kg twice a week): 1.5
- Feed intake, Mean (Day 2, 10 nmol/kg twice a week): 1.7
- Feed intake, Mean (Day 2, 30 nmol/kg twice a week): 1.6
- Feed intake, Mean (Day 3, 3 nmol/kg twice a week): 1.9
- Feed intake, Mean (Day 3, 10 nmol/kg twice a week): 2.3
- Feed intake, Mean (Day 3, 30 nmol/kg twice a week): 2.1
- Feed intake, Mean (Day 4, 3 nmol/kg twice a week): 1.9
- Feed intake, Mean (Day 4, 10 nmol/kg twice a week): 2.2
- Feed intake, Mean (Day 4, 30 nmol/kg twice a week): 2.2
- Feed intake, Mean (Day 5, 3 nmol/kg twice a week): 2.0
- Feed intake, Mean (Day 5, 10 nmol/kg twice a week): 2.1
- Feed intake, Mean (Day 5, 30 nmol/kg twice a week): 2.3
- Feed intake, Mean (Day 6, 3 nmol/kg twice a week): 1.6
- Feed intake, Mean (Day 6, 10 nmol/kg twice a week): 1.9
- Feed intake, Mean (Day 6, 30 nmol/kg twice a week): 1.8
- Feed intake, Mean (Day 7, 3 nmol/kg twice a week): 2.1
- Feed intake, Mean (Day 7, 10 nmol/kg twice a week): 2.2
- Feed intake, Mean (Day 7, 30 nmol/kg twice a week): 2.2
- Feed intake, Mean (Day 8, 3 nmol/kg twice a week): 2.1
- Feed intake, Mean (Day 8, 10 nmol/kg twice a week): 2.1
- Feed intake, Mean (Day 8, 30 nmol/kg twice a week): 2.1
- Feed intake, Mean (Day 9, 3 nmol/kg twice a week): 1.9
- Feed intake, Mean (Day 9, 10 nmol/kg twice a week): 2.1
- Feed intake, Mean (Day 9, 30 nmol/kg twice a week): 2.0
- Feed intake, Mean (Day 10, 3 nmol/kg twice a week): 2.4
- Feed intake, Mean (Day 10, 10 nmol/kg twice a week): 2.4
- Feed intake, Mean (Day 10, 30 nmol/kg twice a week): 2.5
- Feed intake, Mean (Day 11, 3 nmol/kg twice a week): 2.5
- Feed intake, Mean (Day 11, 10 nmol/kg twice a week): 3.0
- Feed intake, Mean (Day 11, 30 nmol/kg twice a week): 2.9
- Feed intake, Mean (Day 12, 3 nmol/kg twice a week): 3.9
- Feed intake, Mean (Day 12, 10 nmol/kg twice a week): 4.1
- Feed intake, Mean (Day 12, 30 nmol/kg twice a week): 4.0
- Feed intake, Mean (Day 13, 3 nmol/kg twice a week): 2.9
- Feed intake, Mean (Day 13, 10 nmol/kg twice a week): 2.5
- Feed intake, Mean (Day 13, 30 nmol/kg twice a week): 2.1
- Feed intake, Mean (Day 14, 3 nmol/kg twice a week): 3.2
- Feed intake, Mean (Day 14, 10 nmol/kg twice a week): 3.3
- Feed intake, Mean (Day 14, 30 nmol/kg twice a week): 3.0
- Feed intake, Mean (Day 15, 3 nmol/kg twice a week): 3.1
- Feed intake, Mean (Day 15, 10 nmol/kg twice a week): 3.2
- Feed intake, Mean (Day 15, 30 nmol/kg twice a week): 3.1
- Feed intake, Mean (Day 16, 3 nmol/kg twice a week): 2.7
- Feed intake, Mean (Day 16, 10 nmol/kg twice a week): 2.2
- Feed intake, Mean (Day 16, 30 nmol/kg twice a week): 1.9
- Feed intake, Mean (Day 17, 3 nmol/kg twice a week): 3.0
- Feed intake, Mean (Day 17, 10 nmol/kg twice a week): 3.3
- Feed intake, Mean (Day 17, 30 nmol/kg twice a week): 3.0
- Feed intake, Mean (Day 18, 3 nmol/kg twice a week): 3.1
- Feed intake, Mean (Day 18, 10 nmol/kg twice a week): 3.3
- Feed intake, Mean (Day 18, 30 nmol/kg twice a week): 3.2
- Feed intake, Mean (Day 19, 3 nmol/kg twice a week): 3.3
- Feed intake, Mean (Day 19, 10 nmol/kg twice a week): 3.4
- Feed intake, Mean (Day 19, 30 nmol/kg twice a week): 3.3
- Feed intake, Mean (Day 20, 3 nmol/kg twice a week): 2.7
- Feed intake, Mean (Day 20, 10 nmol/kg twice a week): 2.4
- Feed intake, Mean (Day 20, 30 nmol/kg twice a week): 1.9
- Feed intake, Mean (Day 21, 3 nmol/kg twice a week): 3.0
- Feed intake, Mean (Day 21, 10 nmol/kg twice a week): 3.1
- Feed intake, Mean (Day 21, 30 nmol/kg twice a week): 3.1
- Feed intake, Mean (Day 22, 3 nmol/kg twice a week): 3.1
- Feed intake, Mean (Day 22, 10 nmol/kg twice a week): 3.2
- Feed intake, Mean (Day 22, 30 nmol/kg twice a week): 3.4
- Feed intake, Mean (Day 23, 3 nmol/kg twice a week): 2.9
- Feed intake, Mean (Day 23, 10 nmol/kg twice a week): 2.7
- Feed intake, Mean (Day 23, 30 nmol/kg twice a week): 2.3
- Feed intake, Mean (Day 24, 3 nmol/kg twice a week): 3.1
- Feed intake, Mean (Day 24, 10 nmol/kg twice a week): 3.1
- Feed intake, Mean (Day 24, 30 nmol/kg twice a week): 3.3
- Feed intake, Mean (Day 25, 3 nmol/kg twice a week): 2.9
- Feed intake, Mean (Day 25, 10 nmol/kg twice a week): 3.3
- Feed intake, Mean (Day 25, 30 nmol/kg twice a week): 3.2
- Feed intake, Mean (Day 26, 3 nmol/kg twice a week): 3.0
- Feed intake, Mean (Day 26, 10 nmol/kg twice a week): 3.3
- Feed intake, Mean (Day 26, 30 nmol/kg twice a week): 3.2
- Feed intake, Mean (Day 27, 3 nmol/kg twice a week): 2.8
- Feed intake, Mean (Day 27, 10 nmol/kg twice a week): 2.7
- Feed intake, Mean (Day 27, 30 nmol/kg twice a week): 2.2
- Feed intake, Mean (Day 28, 3 nmol/kg twice a week): 2.7
- Feed intake, Mean (Day 28, 10 nmol/kg twice a week): 3.2
- Feed intake, Mean (Day 28, 30 nmol/kg twice a week): 3.2
